For 19 molecules, EC50 results are on record in ChEMBL document CHEMBL5729391, “Acyclic antivirals” (2022).

The term EC50 denotes the concentration that produces a half-maximal response. Low readings indicate a more potent agent, high ones a less potent agent.

Each structure is given as a SMILES string.

The assay can be described thus: Inhibition of HBV: Determination of 50% inhibitory concentration (EC50) of compounds in […] cells were performed by the following procedure. On the first day, cells were seeded at 30,000 cells per 100 μL well in Biocoat collage coated flat bottom 96 well plates. On the following day, test compounds were solubilized in 100% DMSO to 100× the desired final testing concentration. Each compound was then serially diluted (1:3) up to 9 different concentrations. Compounds in 100% DMSO are reduced to 10% DMSO by diluting 1:10 in assay media. The final DMSO concentration was 1%. The cells were incubated at 37° C. for 72 hours.The antiviral activity was measured using a quantitative kinetic reverse transcription-polymerase chain reaction (RT-PCR) assay directly measuring the HBV viral copy numbers from the supernatant of HepG2.117 cells. EC50 was defined as the concentration of compound at which the HBV viral copy numbers from the HepG2.117 cells was reduced 50% relative to its level in the absence of compound. HBV viral copy numbers are normalized to the level observed in the absence of inhibitor, which was defined as 100%. The class given is cell-based. A general note: In antiviral work, replicon cells carry a viral genome segment that copies itself.
For the molecule `Nc1ncnn2c(C[C@H](CF)OCP(=O)(O)O)cnc12`, the EC50 is under 1 µM. With `Nc1ncnc2c(C[C@@H](OCP(=O)(O)O)C(F)F)cnn12`, the half-maximal effective concentration (EC50) result is “in the range around 5.5 µM”.

The molecule `CC(C)OC(=O)[C@H](C)NP(=O)(COC(C)Cc1cnc2c(=O)[nH]c(N)nn12)Oc1ccccc1` (some centres undefined) registered an EC50 of under 1 µM. `CC(C)OC(=O)[C@H](C)NP(=O)(CO[C@@H](CF)Cc1cnn2c(N)ncnc12)Oc1ccccc1` (some centres undefined) registered an EC50 of under 1 µM. With `CC(C)OC(=O)[C@H](C)NP(=O)(CO[C@H](C)Cc1cnn2c(N)ncnc12)Oc1ccccc1` (some centres undefined), the concentration for a half-maximal effect (EC50) was under 1 µM. Consider `Nc1ncnn2c(C[C@@H](CF)OCP(=O)(O)O)cnc12`, for which the concentration giving a half-maximal response (EC50) entry was “in the range around 55 µM”. With `Nc1ncnc2c(C[C@H](OCP(=O)(O)O)C(F)F)cnn12`, the concentration giving a half-maximal response (EC50) entry is “in the range around 5.5 µM”. Consider `CC(C)OC(=O)[C@H](C)NP(=O)(CO[C@H](C)Cc1cnc2c(N)ncnn12)Oc1ccccc1` (some centres undefined), for which the concentration giving a half-maximal response (EC50) is under 1 µM.

For `Nc1ncnc2c(CC3(OCP(=O)(O)O)CC3)cnn12`, the half-maximal effective concentration (EC50) result is “in the range around 55 µM”. `CC(Cc1cnc2c(=O)[nH]c(N)nn12)OCP(=O)(O)O` (centres undefined) returned an EC50 of under 1 µM. Regarding `CC(C)OC(=O)[C@H](C)NP(=O)(CO[C@H](CF)Cc1cnn2c(N)ncnc12)Oc1ccccc1` (some centres undefined), the EC50 was under 1 µM. Consider `CC(C)OC(=O)OCOP(=O)(COC(C)Cc1ccc2c(=O)[nH]c(N)nn12)OCOC(=O)OC(C)C` (centres undefined), for which the half-maximal effective concentration (EC50) is under 1 µM. Then `CC(C)OC(=O)OCOP(=O)(CO[C@H](C)Cc1ccc2c(N)ncnn12)OCOC(=O)OC(C)C`, with under 1 µM; and `CC(C)OC(=O)OCOP(=O)(COC(C)Cc1ccc2c(N)nc(N)nn12)OCOC(=O)OC(C)C` (centres undefined), with “in the range around 5.5 µM”; and `CC(C)OC(=O)OCOP(=O)(CO[C@H](C)Cc1cnc2c(N)ncnn12)OCOC(=O)OC(C)C`, with under 1 µM. With `CC(C)OC(=O)OCOP(=O)(COC(CF)Cc1cnn2c(N)ncnc12)OCOC(=O)OC(C)C` (centres undefined), the EC50 was under 1 µM. `CC(C)OC(=O)OCOP(=O)(CO[C@@H](C)Cc1cnn2c(N)ncnc12)OCOC(=O)OC(C)C`: the concentration giving a half-maximal response (EC50) is under 1 µM. For the molecule `CC(C)OC(=O)OCOP(=O)(COCCc1ccc2c(N)ncnn12)OCOC(=O)OC(C)C`, the EC50 result is “in the range around 5.5 µM”. As to `CC(C)OC(=O)OCOP(=O)(CO[C@H](C)Cc1cnn2c(N)ncnc12)OCOC(=O)OC(C)C`, the EC50 is over 100 µM.
